The values that follow come from patent US20150175599A1, “FAAH Inhibitors” (Ironwood Pharmaceuticals, Inc., priority 2010, published 2015).

As a reminder, the IC50 is the concentration that gives 50% inhibition.

SMILES strings stand for the structures. Bounds are passed on as bounds.

Data set [1] deals with T1, human FAAH-1 (Homo sapiens, UniProt O00519).
T1 sequence (O00519 1-579): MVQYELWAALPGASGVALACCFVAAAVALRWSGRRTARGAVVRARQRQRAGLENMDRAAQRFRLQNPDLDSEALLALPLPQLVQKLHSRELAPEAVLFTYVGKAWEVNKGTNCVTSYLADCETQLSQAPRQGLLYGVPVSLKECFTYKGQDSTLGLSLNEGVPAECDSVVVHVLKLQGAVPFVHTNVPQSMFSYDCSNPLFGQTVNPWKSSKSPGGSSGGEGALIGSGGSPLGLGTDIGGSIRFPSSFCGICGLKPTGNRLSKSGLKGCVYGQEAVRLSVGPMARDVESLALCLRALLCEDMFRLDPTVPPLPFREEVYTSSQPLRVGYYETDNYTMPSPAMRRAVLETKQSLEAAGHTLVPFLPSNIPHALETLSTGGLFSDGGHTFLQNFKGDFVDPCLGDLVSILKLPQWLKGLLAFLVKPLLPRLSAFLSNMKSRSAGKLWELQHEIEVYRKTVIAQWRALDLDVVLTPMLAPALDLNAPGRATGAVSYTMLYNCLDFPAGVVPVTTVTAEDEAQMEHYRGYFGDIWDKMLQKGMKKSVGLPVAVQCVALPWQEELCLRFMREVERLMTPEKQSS
Description: Whole cell anandamide hydrolysis assay (HeLa clone 5c5 transfected with human FAAH-1). In kind it is cell-based. The settings on record: HeLa clone 5c5 expressing human FAAH-1; read-out: human FAAH whole cell IC50. An outline of the steps: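 Stable HeLa clone 5c5 expressing human FAAH-1, pre-incubated with compound 10 min at 37° C in DMEM/F12 with 15 mM HEPES pH 7.4 and 0.1% fatty-acid-free BSA. [3H]-anandamide (5 μM stock) added for 15 min; [3H]-ethanolamine separated on charcoal and counted. IC50 from curves constrained to 100% and 0%.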

The nature of data set [2]: Pharmacokinetic study, plasma level 2 hours after oral dosing in rats. It is filed as in vivo. An outline of the steps:
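Rats dosed by oral gavage in 1% DMA/99% Vitamin E TPGS; EDTA plasma taken by retro-orbital bleed 2 h post-dose. Acetonitrile precipitation with internal standard, LC/MS/MS quantitation against plasma standards 0.1–3000 ng/mL.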

Turning to `COc1cc(NC(=O)C(=O)c2c(C)n(Cc3ccc(Cl)cc3Cl)c3cc(F)c(OC)cc23)ccn1` [Compound 92, 2-(1-(2,4-dichlorobenzyl)-6-fluoro-5-methoxy-2-methyl-1H-indol-3-yl)-N-(2-methoxypyridin-4-yl)-2-oxoacetamide], in data set [1], the IC50 is below 100 nM.

Regarding `COc1ccc2c(c1)c(C(=O)C(=O)Nc1ccnc(OC)c1)c(C)n2Cc1ncccn1` [Compound 83, 2-(5-methoxy-2-methyl-1-(pyrimidin-2-ylmethyl)-1H-indol-3-yl)-N-(2-methoxypyridin-4-yl)-2-oxoacetamide], in data set [1], the IC50 was in the range of 100 to 1000 nM.

`COc1ccc2c(c1)c(C(=O)C(=O)Nc1ccnc(OC)c1)c(C)n2Cc1ncc(Cl)cc1Cl` [Compound 82, 2-(1-((3,5-dichloropyridin-2-yl)methyl)-5-methoxy-2-methyl-1H-indol-3-yl)-N-(2-methoxypyridin-4-yl)-2-oxoacetamide]: the “2 hr plasma level-ng/mL (rat, 10 mg/kg PO, 2 hr)” value (“2 hr plasma level-ng/mL” below) in data set [2] is listed as “D (D = greater than 1000 nM)”. The 50% inhibitory concentration (IC50) in data set [1] was below 100 nM.

Turning to `COc1cc(NC(=O)C(=O)c2c(C)n(Cc3ccc(Cl)cc3)c3cc(OC)c(Cl)cc23)ccn1` [Compound 80, 2-(5-chloro-1-(4-chlorobenzyl)-6-methoxy-2-methyl-1H-indol-3-yl)-N-(2-methoxypyridin-4-yl)-2-oxoacetamide], in data set [1], the IC50 is below 100 nM.

Regarding `COc1cc(NC(=O)C(=O)c2c(C)n(Cc3ccc(Cl)cc3)c3cc(F)c(C)cc23)ccn1` [Compound 89, 2-(1-(4-chlorobenzyl)-6-fluoro-2,5-dimethyl-1H-indol-3-yl)-N-(2-methoxypyridin-4-yl)-2-oxoacetamide], the “2 hr plasma level-ng/mL” value in data set [2] was “C (C = between 100 nM and 1000 nM)”. For the same compound, the half-maximal inhibitory concentration (IC50) in data set [1] is below 100 nM.

For `COc1cc(NC(=O)C(=O)c2c(C)n(Cc3ccc(F)cn3)c3ccc(C)cc23)ccn1` [Compound 85, 2-(1-((5-fluoropyridin-2-yl)methyl)-2,5-dimethyl-1H-indol-3-yl)-N-(2-methoxypyridin-4-yl)-2-oxoacetamide], the “2 hr plasma level-ng/mL” value in data set [2] was “D (D = greater than 1000 nM)”. Besides, in data set [1], the 50% inhibitory concentration (IC50) was below 100 nM.

`COc1ccc2c(c1)c(C(=O)C(=O)Nc1ccnc(OC)c1)c(C)n2Cc1ccc(Cl)nn1` [Compound 86, 2-(1-((6-chloropyridazin-3-yl)methyl)-5-methoxy-2-methyl-1H-indol-3-yl)-N-(2-methoxypyridin-4-yl)-2-oxoacetamide]: the “2 hr plasma level-ng/mL” value in data set [2] is “D (D = greater than 1000 nM)”. For the same compound, the half-inhibitory concentration (IC50) in data set [1] was below 100 nM.

For the compound `COc1cc(NC(=O)C(=O)c2c(C)n(Cc3ccc(Cl)cc3)c3ccc(C(=O)O)cc23)ccn1` [Compound 4, 1-(4-chlorobenzyl)-3-(2-(2-methoxypyridin-4-ylamino)-2-oxoacetyl)-2-methyl-1H-indole-5-carboxylic acid], the half-inhibitory concentration (IC50) in data set [1] lay within 1000 to 10000 nM.

For `COc1cc(NC(=O)C(=O)c2c(C)n(Cc3ccc(Cl)cc3)c3cc(Cl)c(C)cc23)ccn1` [Compound 93, 2-(6-chloro-1-(4-chlorobenzyl)-2,5-dimethyl-1H-indol-3-yl)-N-(2-methoxypyridin-4-yl)-2-oxoacetamide], in data set [2], the “2 hr plasma level-ng/mL” value is “C (C = between 100 nM and 1000 nM)”. Besides, the half-inhibitory concentration (IC50) in data set [1] is below 100 nM.

Consider `COc1ccc2c(c1)c(C(=O)C(=O)Nc1ccnc(OC)c1)c(C)n2Cc1ncc(F)cc1F` [Compound 81, 2-(1-((3,5-difluoropyridin-2-yl)methyl)-5-methoxy-2-methyl-1H-indol-3-yl)-N-(2-methoxypyridin-4-yl)-2-oxoacetamide], for which, in data set [2], the “2 hr plasma level-ng/mL” value was “D (D = greater than 1000 nM)”. Besides, the IC50 in data set [1] was below 100 nM.

Take `COc1cc(NC(=O)C(=O)c2c(C)n(Cc3ccc(Cl)cc3)c3cccnc23)ccn1` [Compound 3, 2-(1-(4-chlorobenzyl)-2-methyl-1H-pyrrolo[3,2-b]pyridin-3-yl)-N-(2-methoxypyridin-4-yl)-2-oxoacetamide]: the concentration for half-maximal inhibition (IC50) in data set [1] is below 100 nM.

With `COc1ccc2c(c1)c(C(=O)C(=O)Nc1ccnc(OC)c1)c(C)n2Cc1ncc(Cl)cc1F` [Compound 87, 2-(1-((5-chloro-3-fluoropyridin-2-yl)methyl)-5-methoxy-2-methyl-1H-indol-3-yl)-N-(2-methoxypyridin-4-yl)-2-oxoacetamide], the “2 hr plasma level-ng/mL” value in data set [2] was “D (D = greater than 1000 nM)”. Further, the IC50 in data set [1] was below 100 nM.

For `COc1ccc2c(c1)c(C(=O)C(=O)Nc1ccnc(OC)c1)c(C)n2Cc1ccc(C)cn1` [Compound 84, 2-(5-methoxy-2-methyl-1-((5-methylpyridin-2-yl)methyl)-1H-indol-3-yl)-N-(2-methoxypyridin-4-yl)-2-oxoacetamide], the “2 hr plasma level-ng/mL” value in data set [2] is “D (D = greater than 1000 nM)”. The IC50 in data set [1] is below 100 nM.

As for `COc1cc(NC(=O)C(=O)c2c(C)n(Cc3ccc(Cl)cn3)c3cc(F)c(C)cc23)ccn1` [Compound 90, 2-(1-((5-chloropyridin-2-yl)methyl)-6-fluoro-2,5-dimethyl-1H-indol-3-yl)-N-(2-methoxypyridin-4-yl)-2-oxoacetamide], the “2 hr plasma level-ng/mL” value in data set [2] was “D (D = greater than 1000 nM)”. Besides, in data set [1], the half-maximal inhibitory concentration (IC50) was below 100 nM.

Turning to `COc1cc(NC(=O)C(=O)c2c(C)n(Cc3ccc(Cl)cn3)c3cc(Cl)c(C)cc23)ccn1` [Compound 94, 2-(6-chloro-1-((5-chloropyridin-2-yl)methyl)-2,5-dimethyl-1H-indol-3-yl)-N-(2-methoxypyridin-4-yl)-2-oxoacetamide], the “2 hr plasma level-ng/mL” value in data set [2] is “D (D = greater than 1000 nM)”. Besides, in data set [1], the IC50 was below 100 nM.

As for `COc1ccc2c(c1)c(C(=O)C(=O)Nc1ccnc(OC)c1)c(C)n2Cc1ccc(Cl)cn1` [Compound 79, 2-(1-((5-chloropyridin-2-yl)methyl)-5-methoxy-2-methyl-1H-indol-3-yl)-N-(2-methoxypyridin-4-yl)-2-oxoacetamide], in data set [2], the “2 hr plasma level-ng/mL” value is recorded as “D (D = greater than 1000 nM)”. Moreover, the IC50 in data set [1] was below 100 nM.

As to `COc1cc(NC(=O)C(=O)c2c(C)n(Cc3ccc(Cl)cc3F)c3cc(F)c(OC)cc23)ccn1` [Compound 91, 2-(1-(4-chloro-2-fluorobenzyl)-6-fluoro-5-methoxy-2-methyl-1H-indol-3-yl)-N-(2-methoxypyridin-4-yl)-2-oxoacetamide], the half-maximal inhibitory concentration (IC50) in data set [1] was below 100 nM.

`COc1ccc2c(c1)c(C(=O)C(=O)Nc1ccnc(OC)c1)c(C)n2Cc1cccnc1` [Compound 78, 2-(5-methoxy-2-methyl-1-(pyridin-3-ylmethyl)-1H-indol-3-yl)-N-(2-methoxypyridin-4-yl)-2-oxoacetamide]: the IC50 in data set [1] is below 100 nM.
